Measured values reported in ChEMBL document CHEMBL1201862, “PubChem BioAssay data set” (2004).
Where a name gives a salt, the structure may show the parent alone.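 In this assay, cells in 96-well plates receive the compound at five concentrations for 48 hours. Endpoints are linearly interpolated between the surrounding concentrations. GI50: concentration for 50% inhibition of growth.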 Activity calls are given as the source filed them. Cut-off read from the data, not from the text of the source: active = GI50 up to about 1.1 µM and inactive = higher.

Legend:
Assay in all cases: NCI anticancer screen, dose series, 48 h
[1] = tested on: ACHN
[2] = tested on: COLO 205
[3] = tested on: HCT-116
[4] = tested on: HCT-15
[5] = tested on: HOP-92
[6] = tested on: HT-29
[7] = tested on: MOLT-4
[8] = tested on: NCI-H522
[9] = tested on: OVCAR-3
[10] = tested on: OVCAR-4
[11] = tested on: OVCAR-8
[12] = tested on: RPMI-8226
[13] = tested on: SF-295
[14] = tested on: SK-MEL-28
[15] = tested on: SNB-19
[16] = tested on: SW-620
[17] = tested on: TK-10
[18] = tested on: UACC-62
[19] = tested on: MDA-MB-435

Row | Compound | GI50 [1] | GI50 [2] | GI50 [3] | GI50 [4] | GI50 [5] | GI50 [6] | GI50 [7] | GI50 [8] | GI50 [9] | GI50 [10] | GI50 [11] | GI50 [12] | GI50 [13] | GI50 [14] | GI50 [15] | GI50 [16] | GI50 [17] | GI50 [18] | GI50 [19]
1 | CCOc1ccc(/C=C\c2cc(OC)c(OC)c(OC)c2)cc1 | 0.01 µM (active) | 0.0127 µM (active) | 0.00033 µM (active) | 0.027 µM | 0.000828 µM (active) | 0.000131 µM (active) | 0.000634 µM (active) | < 0.0001 µM (active) | 0.000303 µM (active) | 0.114 µM (active) | 0.000456 µM (active) | 0.000443 µM (active) | < 0.0001 µM (active) | 0.000235 µM (active) | 0.000165 µM (active) | < 0.0001 µM (active) | 29.6 µM (inactive) | 0.01 µM (active) | 
2 | C[C@H](OCc1ccccc1)C(=O)N1CCS(=O)(=O)N2CCC[C@H]2C1=O | > 100 µM (inactive) | > 100 µM (inactive) | > 100 µM (inactive) | > 100 µM | > 100 µM (inactive) | > 100 µM (inactive) | > 100 µM (inactive) | > 100 µM (inactive) | > 100 µM (inactive) | > 100 µM (inactive) | > 100 µM (inactive) | > 100 µM (inactive) | > 100 µM (inactive) | > 100 µM (inactive) | > 100 µM (inactive) | > 100 µM (inactive) | > 100 µM (inactive) | > 100 µM (inactive) | 
3 | COC[C@@H](/N=C/N1CCc2cc(OC)c(OC)cc2C1)C(C)(C)C | > 100 µM (inactive) | > 100 µM (inactive) | > 100 µM (inactive) | > 100 µM | > 100 µM (inactive) | > 100 µM (inactive) | > 100 µM (inactive) | > 100 µM (inactive) | > 100 µM (inactive) | > 100 µM (inactive) | > 100 µM (inactive) | > 100 µM (inactive) | > 100 µM (inactive) | > 100 µM (inactive) | > 100 µM (inactive) | > 100 µM (inactive) | > 100 µM (inactive) | > 100 µM (inactive) | 
4 | COc1ccc(OC)c(CCc2ccccc2CC(=O)O)c1 | > 100 µM (inactive) | > 100 µM (inactive) | > 100 µM (inactive) | > 100 µM | > 100 µM (inactive) | > 100 µM (inactive) | > 100 µM (inactive) | > 100 µM (inactive) | > 100 µM (inactive) | > 100 µM (inactive) | > 100 µM (inactive) | > 100 µM (inactive) | > 100 µM (inactive) | > 100 µM (inactive) | > 100 µM (inactive) | > 100 µM (inactive) | > 100 µM (inactive) | > 100 µM (inactive) | 
5 | CS(=O)(=O)c1ccc(COP(N)(=O)N(CCCl)CCCl)cc1 (stereo unspecified) | > 100 µM (inactive) | > 100 µM (inactive) | > 100 µM (inactive) | > 100 µM | > 100 µM (inactive) | > 100 µM (inactive) | > 100 µM (inactive) | > 100 µM (inactive) | > 100 µM (inactive) | > 100 µM (inactive) | > 100 µM (inactive) | > 100 µM (inactive) | > 100 µM (inactive) | > 100 µM (inactive) | > 100 µM (inactive) | > 100 µM (inactive) | > 100 µM (inactive) | > 100 µM (inactive) | 
6 | N#CSC#CCCC#CSC#N | 17.5 µM (inactive) | 12.9 µM (inactive) | 22.8 µM (inactive) | 18.2 µM | 17.5 µM (inactive) | 21.3 µM (inactive) | 2.58 µM (inactive) | 2.2 µM (inactive) | 21.6 µM (inactive) | 27.1 µM (inactive) | 25.4 µM (inactive) |  | 18.3 µM (inactive) | 29.4 µM (inactive) | 15.5 µM (inactive) | 14.2 µM (inactive) | 17.9 µM (inactive) | 17 µM (inactive) | 23 µM (inactive)
7 | CC(=O)OCC(Br)C1(C)CCC(C(C)(C)Br)O1 (stereo unspecified) | 94.8 µM (inactive) | 51.2 µM (inactive) | 46.8 µM (inactive) |  | 20.6 µM (inactive) | 62.7 µM (inactive) | 73.8 µM (inactive) | 28.5 µM (inactive) | 59.2 µM (inactive) | 11.2 µM (inactive) |  | > 100 µM (inactive) | > 100 µM (inactive) | 79.6 µM (inactive) | > 100 µM (inactive) | 55.6 µM (inactive) | > 100 µM (inactive) |  | 69.5 µM (inactive)
8 | Cc1ccccc1C(C#N)/C(=N/NC(=O)C(=O)NN)C(=O)Nc1cccc(C(F)(F)F)c1 (stereo unspecified) | > 100 µM (inactive) | > 100 µM (inactive) | > 100 µM (inactive) | > 100 µM | > 100 µM (inactive) | > 100 µM (inactive) | > 100 µM (inactive) | > 100 µM (inactive) | > 100 µM (inactive) | > 100 µM (inactive) | > 100 µM (inactive) | > 100 µM (inactive) | > 100 µM (inactive) | > 100 µM (inactive) | > 100 µM (inactive) | > 100 µM (inactive) | > 100 µM (inactive) | > 100 µM (inactive) | 
9 | C#Cc1cccc(Nc2ncnc3cc(OCCOC)c(OCCOC)cc23)c1 [ERLOTINIB HYDROCHLORIDE] | 0.109 µM (active) | 4.99 µM (inactive) | 6.05 µM (inactive) | 4.76 µM | 4.05 µM (inactive) | 27.2 µM (inactive) |  |  |  | 27.2 µM (inactive) | 7.23 µM (inactive) | 55.3 µM (inactive) | 16.2 µM (inactive) | > 100 µM (inactive) | < 0.01 µM (active) | > 100 µM (inactive) |  | < 0.01 µM (active) | 4.06 µM (inactive)
10 | CCCc1nn(C)c(CCC(=O)N(Cc2ccccc2)Cc2ccccc2)c1CC | > 100 µM (inactive) | > 100 µM (inactive) | > 100 µM (inactive) | > 100 µM | > 100 µM (inactive) | > 100 µM (inactive) |  | > 100 µM (inactive) | > 100 µM (inactive) | > 100 µM (inactive) | > 100 µM (inactive) | > 100 µM (inactive) | > 100 µM (inactive) | > 100 µM (inactive) | > 100 µM (inactive) | > 100 µM (inactive) | > 100 µM (inactive) | > 100 µM (inactive) | 
11 | COc1ccc(/C=N/N=C(\N)NO)cc1OC | 25.6 µM (inactive) | 37.5 µM (inactive) | 42.8 µM (inactive) | 75.2 µM | 84.7 µM (inactive) | 28.7 µM (inactive) | > 100 µM (inactive) | 26.3 µM (inactive) | > 100 µM (inactive) | 99.1 µM (inactive) | 38.4 µM (inactive) | > 100 µM (inactive) | 46.9 µM (inactive) | > 100 µM (inactive) | > 100 µM (inactive) | 65.2 µM (inactive) | 56.4 µM (inactive) | 23.3 µM (inactive) | 
12 | COC(=O)/C=C1/CCC2[C@@H](C(=O)CC3[C@]2(C)CCC[C@@]3(C)C(=O)OC)C1C (stereo partly specified) | 10.1 µM (inactive) | 5.57 µM (inactive) | 5.79 µM (inactive) | 14 µM | 5.13 µM (inactive) | 5.64 µM (inactive) | 4.04 µM (inactive) | 5.07 µM (inactive) | 7.67 µM (inactive) | 8.73 µM (inactive) | 12.3 µM (inactive) | 2.98 µM (inactive) | 17.7 µM (inactive) | 13.3 µM (inactive) | 17.4 µM (inactive) | 5.86 µM (inactive) | 20 µM (inactive) | 10.7 µM (inactive) | 
13 | COc1cc2c(c(OC)c1OC)-c1ccc(SC)c(=O)cc1C(CC(=O)Oc1cccc(F)c1)C2 (stereo unspecified) | 0.243 µM (active) | 0.153 µM (active) | 0.321 µM (active) | 0.22 µM | 1.24 µM (inactive) | 0.184 µM (active) | 0.444 µM (active) | 0.102 µM (active) | 0.0946 µM (active) | 2.05 µM (inactive) | 0.337 µM (active) | 0.165 µM (active) | 0.075 µM (active) | 0.621 µM (active) | 0.667 µM (active) | 0.112 µM (active) | 61.7 µM (inactive) | 0.111 µM (active) | 
14 | CC(C)C(Nc1c2ccccc2nc2ccccc12)C(=O)O (stereo unspecified) | 49.2 µM (inactive) | 70.1 µM (inactive) | 43.3 µM (inactive) | > 100 µM | 29.2 µM (inactive) | 59.7 µM (inactive) | 38.7 µM (inactive) | > 100 µM (inactive) | 94.2 µM (inactive) | 20.7 µM (inactive) | > 100 µM (inactive) | 32.5 µM (inactive) | > 100 µM (inactive) | > 100 µM (inactive) | > 100 µM (inactive) | > 100 µM (inactive) | > 100 µM (inactive) | > 100 µM (inactive) | 
15 | O=[N+]([O-])/C=C/c1ccc(Cl)cc1Cl | 16.8 µM (inactive) | 21.2 µM (inactive) | 3.44 µM (inactive) | 15 µM | 15.3 µM (inactive) | 5.77 µM (inactive) | 15.8 µM (inactive) | 14.6 µM (inactive) | 19.9 µM (inactive) | 19.8 µM (inactive) | 25.4 µM (inactive) | 2.44 µM (inactive) | 17 µM (inactive) | 14.9 µM (inactive) | 17.8 µM (inactive) | 12.1 µM (inactive) | > 10 µM (inactive) | 15.7 µM (inactive) | 
16 | O=C(O)C(C(C(=O)O)P(=O)(O)O)P(=O)(O)O (stereo unspecified) | > 100 µM (inactive) | > 100 µM (inactive) | > 100 µM (inactive) | > 100 µM | 86.1 µM (inactive) | > 100 µM (inactive) | > 100 µM (inactive) |  | > 100 µM (inactive) | > 100 µM (inactive) | > 100 µM (inactive) | > 100 µM (inactive) |  | > 100 µM (inactive) | > 100 µM (inactive) | > 100 µM (inactive) | > 100 µM (inactive) | > 100 µM (inactive) | > 100 µM (inactive)
